Measurements reported in patent publication US11987571B1, “Ethyl 2-[9-(6-chloro-2-hydroxyquinolin-3-yl)-3,6-diphenyl-1,8-dioxo-3,4,9,10-tetrahydroacridine-10-yl]-acetate as an antimicrobial compound” (KING FAISAL UNIVERSITY, priority 2023, dated 2024).

Columns and labels:
[1] = test system: Staphylococcus aureus; assay: Antimicrobial activity by agar dilution, St. Aereus; assay type: cell-based; conditions: after 10, 20, 40 and 60 minutes at all dilutions 1:100, 1:200, 1:400, and 1:800
Description: (§1) The antibacterial properties of the synthesized compound (ethyl 2-[9-(6-chloro-2-hydroxyquinolin-3-yl)-3,6-diphenyl-1,8-dioxo-3,4,9,10-tetrahydroacridine-10-yl]-acetate) were studied by the method of agar dilution. Test solutions of each compound was prepared in concentration of 1% using dimethylformamide as a solvent. Then they were diluted in physiological solution to obtain the final experimental dilutions of 1:100, 1:200, 1:400, and 1:800. The effect of these substances were compared with furacillin in a controllable study. The testing microbes used were gram positive bacteria Staphylococcus aureus, gram negative bacteria Pseudomonas aeruginosa, Escherichia coli, and Candida albicans fungus. The experiments used for this survey were meat-pentonlu agar (EPA) for cultivation of bacteria and Saburo environment for fungi. Each experiment used 1 mL of test solution on each plate for […]. Two drops of emulsified with microbes feel were added. All experimental samples were taken from the agar after 10, 20, 40, 60 minutes in the environment on the basis of Patrk planted. Bacteria were cultivated at a temperature of 37° C. for 1 day and the mushroom was kept in a thermostat for […] at a temperature of 28° C. Then results were checked. Those of control and the antimicrobial activity for the synthesized compounds are listed in Table 1 below, with furacillin serving as a reference.

[2] = test system: Escherichia coli; assay: Antimicrobial activity by agar dilution, E. Coli; assay type: cell-based; conditions: after 10, 20, 40 and 60 minutes at all dilutions 1:100, 1:200, 1:400, and 1:800
Description: as §1

[3] = test system: Pseudomonas aeruginosa; assay: Antimicrobial activity by agar dilution, Ps. aeruginosa; assay type: cell-based; conditions: after 10, 20, 40 and 60 minutes at all dilutions 1:100, 1:200, 1:400, and 1:800
Description: as §1

[4] = test system: Candida albicans; assay: Antimicrobial activity by agar dilution, Candida albicans; assay type: cell-based; conditions: after 10, 20, 40 and 60 minutes at all dilutions 1:100, 1:200, 1:400, and 1:800
Description: as §1

CCOC(=O)CN1C2=C(C(=O)CC(c3ccccc3)C2)C(c2cc3cc(Cl)ccc3nc2O)C2=C1CC(c1ccccc1)CC2=O (centres unmarked) [ethyl 2-[9-(6-chloro-2-hydroxyquinolin-3-yl)-3,6-diphenyl-1,8-dioxo-3,4,9,10-tetrahydroacridine-10-yl]-acetate]
inhibition activity compared with Furacilin [1]: higher inhibition activity | inhibition activity compared with Furacilin [2]: higher inhibition activity | inhibition activity compared with Furacilin [3]: higher inhibition activity | inhibition activity compared with Furacilin [4]: higher inhibition activity | melting point: 222 °C
